From patent US9751875B2, “Quinine compounds, and optical isomers, preparation method and medical use thereof” (BEIJING FSWELCOME TECHNOLOGY DEVELOPMENT CO., LTD., priority 2013, dated 2017)
Like-named read-outs stand apart in the source and are kept apart here.

How the values were obtained:
[1] = system: tracheal smooth muscle from guinea pigs (contraction induced by 3 × 10^−6 mol/L of CCh); test: Antagonism in vitro of contraction of isolated tracheal smooth muscle from guinea pigs induced by carbachol (CCh); format: cell-based, guinea pig
[2] = system: tracheal smooth muscle from guinea pigs (contraction induced by 3 × 10^−6 mol/L of CCh); test: as above; format: cell-based, guinea pig; conditions: cumulative dosing
Description: Preparation of the Isolated Tracheal Smooth Muscle Specimen from a Guinea Pig:
After a guinea pig was narcotized with urethane, the trachea between the throat and carina of the guinea pig was taken out rapidly, and placed in the Krebs-Henseleit (K-H) solution (composition (g/L): NaCl 6.92, KCl 0.35, CaCl2 0.28, KH2PO4 0.16, MgSO4.7H2O 0.4568, NaHCO3 2.1, Glucose 2.0) with a mixture gas of 5% CO2 and 95% O2 purged. After loose connective tissues and fats around the trachea were separated, the trachea was cut into trachea pieces having a width of about 3 mm and a length of 20 mm by a surgical scissor, with both ends of the trachea piece ligated with 4˜0 silk suture, and then placed into a thermostatic bath containing 5 ml of K—H solution (pH 7.4) at 37° C., with the mixture gas of 5% CO2 and 95% O2 continuously purged. A muscle tension transducer was connected to the upper end so as to apply 1.0 g of resting tension to the specimen, the change of the tension was recorded, the culture solution was replaced every 20 min, and the test was started after being balanced for 60 min.
Administration method: After the trachea piece was stabilized, 3×10^−6 mol/L of CCh was added into a bath, and after the contractile tension of the trachea piece reached a peak level, the example compounds, ipratropium bromide and tiotropium bromide were added into a Magnus bath by a cumulative dosing regimen with a dosage of 10^−9˜10^−5 mol, respectively, and the diastolic condition of the trachea piece was observed: if no response occurred (below the threshold concentration), a next dosage was continued to be added in sequence; if response occurred, after it reached a diastolic plateau, a next dosage was further added. The above operation was repeated until the contractile curve reached the minimum value. Finally, 10^−6 mol/L of isoprenaline was added so that the maximum relaxation would be reached and the curve was recorded.
Statistical approach: The result was expressed as mean ±standard deviation, and counted by Sigma Stat statistical package. The data was analyzed by using variance analysis, the comparison among means of a plurality of specimen was performed by using Student-Newman-Keuls(SNK) test; statistical significant level α=0.05 (bilateral).
Compounds shown in Table 5 were further prepared according to the present invention, and their IC50 […] of resistance to the contraction of tracheal smooth muscle from guinea pigs induced by a concentration of 3×10^−6 mol/L of CCh was determined.

[3] = system: m1, m2 and m3 subtypes of M receptor; test: Competitive [3H]-QNB binding on membranes of CHO cells transfected with m1, m2, m3; selectivity on subtypes of M receptor; conditions: ratio of Ki, n = 6
[4] = system: bronchus in guinea pigs (contractile response induced by Mch); test: Antagonism of contractile response of bronchus in guinea pigs induced by methacholine (Mch); airway resistance and pulmonary dynamic compliance; format: in vivo, guinea pig; conditions: Mch 10 μg/kg iv after 30 min; for Cdyn(ml/cm H2O) / Raw (cm H2O/ml/s): Mean ± S.E.M
Description: Determination of tidal volume, airway flow rate, and transpulmonary pressure: 1.5 g/kg of urethane was intraperitoneally injected to narcotize the guinea pig. The guinea pig was fixed supinely and treated with tracheal intubation, and the external jugular vein was separated and an indwelling needle was inserted; the guinea pig was enclosed into a body plethysmograph, a blunt needle for intubation into thoracic cavity was inserted between ribs 4˜5 of the prothorax of the guinea pig, and the intrathoracic pressure could be measured (with a negative value of a water column of a water manometer and a fluctuation with the breath of the guinea pig as marks). After stabilization, the values of the tidal volume, airway flow rate and transpulmonary pressure of the guinea pig prior to administration of Mch were recorded by a MedLab biological signal collection and processing system as base values. 10 μg/kg body weight of Mch was intravenously injected. The changes of the airway flow rate, tidal volume and transpulmonary pressure of the guinea pig within 5 minutes were observed. Calculation of Raw and Cdyn: the changes of the increased percentage of Raw value and the decreased percentage of Cdyn after […] of Mch were calculated.
Calculation formulas of Raw and Cdyn were respectively: […]
Dose-effect relationship: For each of the example compounds, 27 guinea pigs were randomly divided into […]: a solvent control group with […], a group with 1 μg/kg of the example compounds 4, 10, 14, and 26, a group with 3 μg/kg of the example compounds 4, 10, 14, and 26 and a group with 10 μg/kg of the example compounds 4, 10, 14, and 26; after 30 min from the dropping of the above concentration of drugs in the airway, 10 μg/kg body weight of Mch was intravenously injected for excitation, and airway resistance (Raw) and pulmonary dynamic compliance (Cdyn) within 5 min were determined. […]

[5] = read-out: IC50 (μM), antagonism in vitro against the contraction of the tracheal smooth muscle induced by CCh, 3 × 10^−6 mol/L of CCh
[6] = Cavia porcellus, read-out: IC50 (μM), antagonism in vitro against the contraction of the tracheal smooth muscle induced by CCh, 3 × 10^−6 mol/L of CCh

SMILES: OC(CO[C@H]1C[N+]2(CCCOc3ccccc3)CCC1CC2)(c1ccccc1)C1CCCC1.[Br-] (stereo partly drawn) [Example 1, (2R,3S)-3-[(2-cyclopentyl-2-hydroxyl-2-phenyl)ethoxyl]-1-(3-phenoxypropyl)-1-azabicyclo[2,2,2]octane bromide]
- Onset time [1]: 6.89 min
- Time for eliminating inhibition effect (min) [1]: more than 300 min
- IC50 [2, 5]: 0.767 µM
- Selectivity m1/m2, Mx/My = Ki(y)/Ki(x) [3]: 34.13
- Selectivity m1/m3, Mx/My = Ki(y)/Ki(x) [3]: 0.358
- Selectivity m2/m3, Mx/My = Ki(y)/Ki(x) [3]: 0.0105

SMILES: C[N+]1(C)CCC(OC(=O)C(c2ccccc2)c2ccccc2)CC1.[I-] [Example 4-DAMP, 4-DAMP, reference compound]
- Selectivity m1/m2, Mx/My = Ki(y)/Ki(x) [3]: 1.66
- Selectivity m1/m3, Mx/My = Ki(y)/Ki(x) [3]: 0.095
- Selectivity m2/m3, Mx/My = Ki(y)/Ki(x) [3]: 0.058

SMILES: O[C@@](COC1C[N+]2(CCCOc3ccccc3)CCC1CC2)(c1ccccc1)C1CCCCC1.[Br-] (stereo partly drawn) [Example 10, (2R,3R)-3-[(2-cyclohexyl-2-hydroxyl-2-phenyl)ethoxyl]-1-(3-phenoxypropyl)-1-azabicyclo[2,2,2]octane bromide]
- Onset time [1]: 6.24 min
- Time for eliminating inhibition effect (min) [1]: more than 300 min
- IC50 [2, 6]: 0.0227 µM
- inhibition ratio against the decrease of pulmonary dynamic compliance ([4]; 1 μg/kg dropped in the airway): 10.9%
- inhibition ratio against the increase of airway resistance ([4]; 1 μg/kg dropped in the airway): 63.7%
- Cdyn(ml/cm H2O) ([4]; 1 μg/kg dropped in the airway): 0.098 ± 0.009 ml/cm H2O
- Raw (cm H2O/ml/s) ([4]; 1 μg/kg dropped in the airway): 0.745 ± 0.089 cm H2O/ml/s
- inhibition ratio against the decrease of pulmonary dynamic compliance ([4]; 3 μg/kg dropped in the airway): 45.9%
- inhibition ratio against the increase of airway resistance ([4]; 3 μg/kg dropped in the airway): 84.5%
- Cdyn(ml/cm H2O) ([4]; 3 μg/kg dropped in the airway): 0.135 ± 0.007 ml/cm H2O
- Raw (cm H2O/ml/s) ([4]; 3 μg/kg dropped in the airway): 0.563 ± 0.057 cm H2O/ml/s
- inhibition ratio against the decrease of pulmonary dynamic compliance ([4]; 10 μg/kg dropped in the airway): 49.8%
- inhibition ratio against the increase of airway resistance ([4]; 10 μg/kg dropped in the airway): 91.3%
- Cdyn(ml/cm H2O) ([4]; 10 μg/kg dropped in the airway): 0.189 ± 0.015 ml/cm H2O
- Raw (cm H2O/ml/s) ([4]; 10 μg/kg dropped in the airway): 0.531 ± 0.092 cm H2O/ml/s

SMILES: OC(CO[C@@H]1C[N+]2(CCCOc3ccccc3)CCC1CC2)(c1ccccc1)C1CCC1.[Br-] (stereo partly drawn) [Example 16, (2R,3R)-3-[(2-cyclobutyl-2-hydroxyl-2-phenyl)ethoxyl]-1-(3-phenoxypropyl)-1-azabicyclo[2,2,2]octane bromide]
- Onset time [1]: 6.38 min
- Time for eliminating inhibition effect (min) [1]: more than 300 min
- IC50 [2, 5]: 0.0573 µM
- Selectivity m1/m2, Mx/My = Ki(y)/Ki(x) [3]: 13.5
- Selectivity m1/m3, Mx/My = Ki(y)/Ki(x) [3]: 0.67
- Selectivity m2/m3, Mx/My = Ki(y)/Ki(x) [3]: 0.037

SMILES: O[C@@](CO[C@@H]1C[N+]2(CCOc3ccccc3)CCC1CC2)(c1ccccc1)C1CCCC1.[Br-] [Example 26, (2R,3R)-3-[(2-cyclopentyl-2-hydroxyl-2-phenyl)ethoxyl]-1-(2-phenoxyethyl)-1-azabicyclo[2,2,2]octane bromide]
- Onset time [1]: 6.14 min
- Time for eliminating inhibition effect (min) [1]: more than 300 min
- IC50 [2, 6]: 0.0235 µM
- inhibition ratio against the decrease of pulmonary dynamic compliance ([4]; 1 μg/kg dropped in the airway): 11.0%
- inhibition ratio against the increase of airway resistance ([4]; 1 μg/kg dropped in the airway): 64.4%
- Cdyn(ml/cm H2O) ([4]; 1 μg/kg dropped in the airway): 0.103 ± 0.014 ml/cm H2O
- Raw (cm H2O/ml/s) ([4]; 1 μg/kg dropped in the airway): 0.739 ± 0.085 cm H2O/ml/s
- inhibition ratio against the decrease of pulmonary dynamic compliance ([4]; 3 μg/kg dropped in the airway): 47.1%
- inhibition ratio against the increase of airway resistance ([4]; 3 μg/kg dropped in the airway): 87.2%
- Cdyn(ml/cm H2O) ([4]; 3 μg/kg dropped in the airway): 0.143 ± 0.016 ml/cm H2O
- Raw (cm H2O/ml/s) ([4]; 3 μg/kg dropped in the airway): 0.531 ± 0.063 cm H2O/ml/s
- inhibition ratio against the decrease of pulmonary dynamic compliance ([4]; 10 μg/kg dropped in the airway): 49.9%
- inhibition ratio against the increase of airway resistance ([4]; 10 μg/kg dropped in the airway): 92.1%
- Cdyn(ml/cm H2O) ([4]; 10 μg/kg dropped in the airway): 0.205 ± 0.018 ml/cm H2O
- Raw (cm H2O/ml/s) ([4]; 10 μg/kg dropped in the airway): 0.493 ± 0.083 cm H2O/ml/s

SMILES: CC[N+](CC)(CC)CCOc1cccc(OCC[N+](CC)(CC)CC)c1OCC[N+](CC)(CC)CC [Gallamine, reference compound]
- Selectivity m1/m2, Mx/My = Ki(y)/Ki(x) [3]: 0.011
- Selectivity m1/m3, Mx/My = Ki(y)/Ki(x) [3]: 0.676
- Selectivity m2/m3, Mx/My = Ki(y)/Ki(x) [3]: 60.26

SMILES: CN1CCN(CC(=O)N2c3ccccc3C(=O)Nc3cccnc32)CC1 [Pirenzepine, reference compound]
- Selectivity m1/m2, Mx/My = Ki(y)/Ki(x) [3]: 169.82
- Selectivity m1/m3, Mx/My = Ki(y)/Ki(x) [3]: 13.49
- Selectivity m2/m3, Mx/My = Ki(y)/Ki(x) [3]: 0.079
